Patent US9511341B2, “Method for preparing acetazolamide sodium powder” (SCI Pharmtech, Inc., priority 2013, dated 2016)

What was measured:
[1] = Impurity D (hydrolysis product) in spray dried powder by USP HPLC method; format: physicochemical; details: air vs N2 as drying gas, judged by difference of impurity D
Experimental: In the developed spray drying process, the spray dryer was initiated in the preferred conditions (such as temperature and flow rate of the heated gas, and pneumatic pressure). In the meantime, an acetazolamide sodium solution was prepared by dispersing the acetazolamide powder into water in a flask inerted with N2 and then mixing the acetazolamide suspension with sodium hydroxide solution. After stirring for 15 min, an acetazolamide sodium solution was obtained and pumped into the spray dryer to proceed the drying process. During the drying process, the acetazolamide sodium solution was fed and atomized into mist by a two-fluid nozzle, and then the water was rapidly vaporized and accompanied with the nucleation of acetazolamide sodium particles in the gas flow of drying chamber. The formed particles were immediately carried into the cyclone, in which the separation of gas-solid was performed. The uncollected particles were recovered by the wet scrubber connected to the exit of cyclone. Finally, the acetazolamide sodium powder in the collector was examined by a halogen moisture analyzer and an analytical HPLC method specified in the current USP monograph of acetazolamide for injection.
In Example 2, the amount of impurity D in the acetazolamide free base was about 0.098-0.110 wt %. […]

[2] = cited from earlier work

Oxygen sensitivity during spray drying [1]	Compound	Solubility in water [2]
not oxygen-sensitive	CC(=O)Nc1nnc(S(N)(=O)=O)s1 [acetazolamide sodium powder, Acetazolamide sodium]	easily dissolves in water
	CC(=O)Nc1nnc(S(N)(=O)=O)s1 [acetazolamide]	extremely low solubility in water
